Laboratory results: publication PMC11879040, “Advancing systemic toxicity risk assessment: Evaluation of a NAM-based toolbox approach” (Toxicological Sciences, 2024)
Values after ≈ are worked out from the molar mass of the structure shown. Like-named read-outs stand apart in the source and are kept apart here.

How the values were obtained:
[1] = target: Voltage-dependent L-type Ca2+ channel (dihydropyridine site), CACNA1C (r) (Rattus norvegicus, UniProt P22002); type: binding
[2] = test system: Potassium Voltage-Gated Channel Kv non-selective, KCNQ1 (r); assay: IPP KCNQ1 binding (antagonist radioligand); set-up: species or system rat; conditions: control α-dendrotoxin
[3] = test system: Gamma-aminobutyric acid receptor subunit alpha-1 BZD site, GABRA1A (r); type: binding, rat
[4] = test system: Sodium channel protein type 5 subunit alpha (site 2), SCN5A (r); type: binding, rat
[5] = target: T1, Adenosine receptor A2a, ADORA2A (h) (Homo sapiens, UniProt P29274); assay: IPP ADORA2A binding (agonist radioligand); conditions: control NECA
T1 construct: purchased Eurofins Cerep (SafetyScreen44-based IPP panel)
T1 sequence (P29274 whole entry): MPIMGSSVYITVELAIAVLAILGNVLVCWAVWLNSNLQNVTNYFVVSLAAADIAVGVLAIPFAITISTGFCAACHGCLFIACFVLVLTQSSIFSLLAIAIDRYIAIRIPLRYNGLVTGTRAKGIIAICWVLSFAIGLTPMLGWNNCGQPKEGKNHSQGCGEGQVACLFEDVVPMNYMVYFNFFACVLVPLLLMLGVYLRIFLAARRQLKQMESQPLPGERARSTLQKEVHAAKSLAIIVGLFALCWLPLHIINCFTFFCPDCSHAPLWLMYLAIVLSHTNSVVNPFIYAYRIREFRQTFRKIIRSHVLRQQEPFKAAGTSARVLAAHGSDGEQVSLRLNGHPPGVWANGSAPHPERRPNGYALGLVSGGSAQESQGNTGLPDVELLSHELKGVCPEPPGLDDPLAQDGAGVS

[6] = test system: Thyroid hormone receptor alpha, THRA (h); assay: IPP THRA coactivator recruitment (agonist); type: biochemical, human; conditions: agonist, T3
Tubulin (r) = assay: IPP Tubulin binding; set-up: species or system rat; conditions: ligand/control Colchicine
HepG2 cells [7] = assay: Cell stress panel (CSP), 24 h, 8 concentrations, BIFROST global PoD; type: cell-based; conditions: for pod_cell_stress PoD: HepG2, cell stress panel PoD
Procedure: Compounds were tested using the previously developed cell stress panel ([Hatherell et al. 2020]) and the expanded biomarker panel outlined in Middleton et al. HepG2 cells were treated with all compounds for 24 h across 8 concentrations prior to biomarker analysis. The same plate layout and number of replicates (3 biological and 2 technical) were used as previously for each assay within the panel.

HepG2 cells [8] = assay: High-throughput transcriptomics (HTTr, TempO-Seq), HepG2, 24 h; type: cell-based, human; conditions: HepG2; for pod_httr_bifrost PoD: HTTr BIFROST PoD; for podl_path_minbmd PoD: HTTr minimum pathway BMD(L)
Procedure: (§1) HepG2, HepaRG, and MCF7 cells were treated with each compound for 24 h across a dose range of 7 concentrations and lysed using TempO-Seq lysis buffer (BioSpyder Technologies, proprietary kit, see [Middleton et al. 2022] for method details). Sequencing was performed using TempO-Seq (BioClavis) version 2 of the human whole transcriptome panel and analyzed as described previously in Middleton et al.

HepaRG cells = assay: High-throughput transcriptomics (HTTr, TempO-Seq), HepaRG, 24 h; type: cell-based, human; conditions: HepaRG; for pod_httr_bifrost PoD: HTTr BIFROST PoD; for podl_path_minbmd PoD: HTTr minimum pathway BMD(L)
Procedure: as §1

MCF7 cells = assay: High-throughput transcriptomics (HTTr, TempO-Seq), MCF7, 24 h; type: cell-based, human; conditions: MCF-7; for pod_httr_bifrost PoD: HTTr BIFROST PoD; for podl_path_minbmd PoD: HTTr minimum pathway BMD(L)
Procedure: as §1

[9] = test system: Glutamate receptor ionotropic NMDA 1 non-selective, GRIN1 (r)
[10] = human
[11] = human; remark: listed apart in the source
physchem [12] = conditions: pH 5.22, water
rat = conditions: cited from earlier work; for PoD (NOAEL): rat, ref ToxRefDB/Paul-Friedman et al. (2020)/regulatory opinions
[13] = cited from earlier work
[14] = target: T2, Estrogen receptor, ER1 (h) (Homo sapiens, UniProt P03372); assay: IPP ER1 coactivator recruitment (agonist); type: biochemical; conditions: estriol
T2 construct: purchased Eurofins Cerep (SafetyScreen44-based IPP panel)
T2 sequence (P03372 1-595): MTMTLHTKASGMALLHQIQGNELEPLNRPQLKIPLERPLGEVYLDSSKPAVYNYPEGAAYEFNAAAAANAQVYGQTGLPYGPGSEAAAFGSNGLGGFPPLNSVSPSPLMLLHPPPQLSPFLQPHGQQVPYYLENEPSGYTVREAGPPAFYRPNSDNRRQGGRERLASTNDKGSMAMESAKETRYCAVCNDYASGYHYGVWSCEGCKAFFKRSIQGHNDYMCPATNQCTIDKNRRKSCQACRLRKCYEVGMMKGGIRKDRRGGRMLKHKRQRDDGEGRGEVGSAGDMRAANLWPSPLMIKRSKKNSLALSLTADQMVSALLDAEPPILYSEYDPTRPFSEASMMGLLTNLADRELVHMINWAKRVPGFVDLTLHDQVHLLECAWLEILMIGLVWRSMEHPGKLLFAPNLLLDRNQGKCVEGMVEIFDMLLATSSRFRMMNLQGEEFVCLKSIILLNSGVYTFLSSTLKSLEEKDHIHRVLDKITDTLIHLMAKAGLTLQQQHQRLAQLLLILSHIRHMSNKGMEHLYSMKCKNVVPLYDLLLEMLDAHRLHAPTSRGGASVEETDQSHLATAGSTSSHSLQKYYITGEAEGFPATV

[15] = target: T2, Estrogen receptor, ER1 (h); assay: IPP ER1 coactivator recruitment (antagonist); type: biochemical; conditions: estriol
[16] = test system: 63 targets with known safety liabilities; assay: In vitro pharmacological profiling (IPP) panel, screening at 10 or 100 µM and dose response, minimum IC50/AC50; type: biochemical; conditions: lowest AC50 across IPP panel (systemic targets); cell_type -; read-out: ipp_lowest_ac50_systemic PoD
[17] = target: Potassium voltage-gated channel subfamily H member 2 hERG, KCNH2 (h) (Homo sapiens, UniProt Q12809)
Sequence of Potassium voltage-gated channel subfamily H member 2 hERG, KCNH2 (h) (Q12809 whole entry): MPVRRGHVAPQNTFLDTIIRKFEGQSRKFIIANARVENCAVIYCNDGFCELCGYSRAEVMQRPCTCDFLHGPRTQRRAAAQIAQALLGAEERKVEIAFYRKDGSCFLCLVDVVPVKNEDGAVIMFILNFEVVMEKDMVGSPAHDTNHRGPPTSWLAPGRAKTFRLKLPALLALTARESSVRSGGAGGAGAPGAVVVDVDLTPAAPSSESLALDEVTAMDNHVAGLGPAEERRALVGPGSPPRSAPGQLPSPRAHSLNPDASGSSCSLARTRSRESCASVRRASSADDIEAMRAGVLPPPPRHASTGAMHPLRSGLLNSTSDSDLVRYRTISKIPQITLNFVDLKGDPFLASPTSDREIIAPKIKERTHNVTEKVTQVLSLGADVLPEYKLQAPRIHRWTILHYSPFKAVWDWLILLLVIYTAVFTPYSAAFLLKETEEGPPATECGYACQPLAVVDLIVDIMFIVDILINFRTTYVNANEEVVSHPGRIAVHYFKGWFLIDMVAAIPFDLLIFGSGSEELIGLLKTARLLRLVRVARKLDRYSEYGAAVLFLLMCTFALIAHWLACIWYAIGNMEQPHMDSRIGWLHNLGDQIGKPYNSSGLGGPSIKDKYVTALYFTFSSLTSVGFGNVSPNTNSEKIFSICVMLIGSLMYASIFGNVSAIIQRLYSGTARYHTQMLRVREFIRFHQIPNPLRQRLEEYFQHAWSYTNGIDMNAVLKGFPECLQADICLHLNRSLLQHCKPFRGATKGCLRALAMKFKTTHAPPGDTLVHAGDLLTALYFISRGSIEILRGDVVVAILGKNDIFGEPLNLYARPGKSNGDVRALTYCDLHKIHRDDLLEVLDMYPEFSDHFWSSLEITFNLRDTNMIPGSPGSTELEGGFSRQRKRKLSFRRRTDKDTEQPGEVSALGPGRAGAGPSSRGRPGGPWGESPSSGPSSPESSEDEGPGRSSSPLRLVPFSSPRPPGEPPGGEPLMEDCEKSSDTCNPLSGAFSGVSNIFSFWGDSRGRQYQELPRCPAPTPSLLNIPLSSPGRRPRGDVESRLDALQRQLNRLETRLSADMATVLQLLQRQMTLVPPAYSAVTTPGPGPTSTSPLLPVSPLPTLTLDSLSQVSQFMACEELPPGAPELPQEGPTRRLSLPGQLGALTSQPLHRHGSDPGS

dog = conditions: 52 weeks, ref ToxRefDB/Paul-Friedman et al. (2020)/regulatory opinions; cited from earlier work
[18] = target: 5-hydroxytryptamine receptor 2B, HTR2B (h) (Homo sapiens, UniProt P41595); assay: biochemical
Sequence of 5-hydroxytryptamine receptor 2B, HTR2B (h) (P41595 whole entry): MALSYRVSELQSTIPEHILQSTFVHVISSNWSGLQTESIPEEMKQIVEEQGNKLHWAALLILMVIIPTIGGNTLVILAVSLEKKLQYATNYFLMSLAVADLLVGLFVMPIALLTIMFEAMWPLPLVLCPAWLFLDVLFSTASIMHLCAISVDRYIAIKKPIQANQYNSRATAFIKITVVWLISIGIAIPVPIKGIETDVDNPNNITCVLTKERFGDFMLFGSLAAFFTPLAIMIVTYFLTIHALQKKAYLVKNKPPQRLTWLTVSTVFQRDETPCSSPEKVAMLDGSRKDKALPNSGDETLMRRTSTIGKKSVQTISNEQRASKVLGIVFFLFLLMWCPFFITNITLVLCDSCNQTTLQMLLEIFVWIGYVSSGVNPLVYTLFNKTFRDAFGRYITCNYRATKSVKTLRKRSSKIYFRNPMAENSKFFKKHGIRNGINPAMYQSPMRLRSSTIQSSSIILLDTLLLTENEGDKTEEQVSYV

physchem [19] = assay: physchem
[20] = PBK input, ref [11], cited from earlier work
[21] = Assignment of risk classifications to benchmark chemical-exposure scenarios; conditions: for risk: Oral, from table S1
[22] = IV bolus 100 mg solution, 20 renal transplant patients, validation, ref Lin et al. 1980
[23] = IV bolus 100 mg solution, uremic patients, validation, ref Odlind et al. 1986
[24] = Oral tablet 100 mg, fasted, uremic patients, calibration, ref Odlind et al. 1986
[25] = 100 uM, * denotes assay interference (2-Amino-6-chloro-4-nitrophenol, HC Red 3)

Sequence of Voltage-dependent L-type Ca2+ channel (dihydropyridine site), CACNA1C (r) (P22002 whole entry): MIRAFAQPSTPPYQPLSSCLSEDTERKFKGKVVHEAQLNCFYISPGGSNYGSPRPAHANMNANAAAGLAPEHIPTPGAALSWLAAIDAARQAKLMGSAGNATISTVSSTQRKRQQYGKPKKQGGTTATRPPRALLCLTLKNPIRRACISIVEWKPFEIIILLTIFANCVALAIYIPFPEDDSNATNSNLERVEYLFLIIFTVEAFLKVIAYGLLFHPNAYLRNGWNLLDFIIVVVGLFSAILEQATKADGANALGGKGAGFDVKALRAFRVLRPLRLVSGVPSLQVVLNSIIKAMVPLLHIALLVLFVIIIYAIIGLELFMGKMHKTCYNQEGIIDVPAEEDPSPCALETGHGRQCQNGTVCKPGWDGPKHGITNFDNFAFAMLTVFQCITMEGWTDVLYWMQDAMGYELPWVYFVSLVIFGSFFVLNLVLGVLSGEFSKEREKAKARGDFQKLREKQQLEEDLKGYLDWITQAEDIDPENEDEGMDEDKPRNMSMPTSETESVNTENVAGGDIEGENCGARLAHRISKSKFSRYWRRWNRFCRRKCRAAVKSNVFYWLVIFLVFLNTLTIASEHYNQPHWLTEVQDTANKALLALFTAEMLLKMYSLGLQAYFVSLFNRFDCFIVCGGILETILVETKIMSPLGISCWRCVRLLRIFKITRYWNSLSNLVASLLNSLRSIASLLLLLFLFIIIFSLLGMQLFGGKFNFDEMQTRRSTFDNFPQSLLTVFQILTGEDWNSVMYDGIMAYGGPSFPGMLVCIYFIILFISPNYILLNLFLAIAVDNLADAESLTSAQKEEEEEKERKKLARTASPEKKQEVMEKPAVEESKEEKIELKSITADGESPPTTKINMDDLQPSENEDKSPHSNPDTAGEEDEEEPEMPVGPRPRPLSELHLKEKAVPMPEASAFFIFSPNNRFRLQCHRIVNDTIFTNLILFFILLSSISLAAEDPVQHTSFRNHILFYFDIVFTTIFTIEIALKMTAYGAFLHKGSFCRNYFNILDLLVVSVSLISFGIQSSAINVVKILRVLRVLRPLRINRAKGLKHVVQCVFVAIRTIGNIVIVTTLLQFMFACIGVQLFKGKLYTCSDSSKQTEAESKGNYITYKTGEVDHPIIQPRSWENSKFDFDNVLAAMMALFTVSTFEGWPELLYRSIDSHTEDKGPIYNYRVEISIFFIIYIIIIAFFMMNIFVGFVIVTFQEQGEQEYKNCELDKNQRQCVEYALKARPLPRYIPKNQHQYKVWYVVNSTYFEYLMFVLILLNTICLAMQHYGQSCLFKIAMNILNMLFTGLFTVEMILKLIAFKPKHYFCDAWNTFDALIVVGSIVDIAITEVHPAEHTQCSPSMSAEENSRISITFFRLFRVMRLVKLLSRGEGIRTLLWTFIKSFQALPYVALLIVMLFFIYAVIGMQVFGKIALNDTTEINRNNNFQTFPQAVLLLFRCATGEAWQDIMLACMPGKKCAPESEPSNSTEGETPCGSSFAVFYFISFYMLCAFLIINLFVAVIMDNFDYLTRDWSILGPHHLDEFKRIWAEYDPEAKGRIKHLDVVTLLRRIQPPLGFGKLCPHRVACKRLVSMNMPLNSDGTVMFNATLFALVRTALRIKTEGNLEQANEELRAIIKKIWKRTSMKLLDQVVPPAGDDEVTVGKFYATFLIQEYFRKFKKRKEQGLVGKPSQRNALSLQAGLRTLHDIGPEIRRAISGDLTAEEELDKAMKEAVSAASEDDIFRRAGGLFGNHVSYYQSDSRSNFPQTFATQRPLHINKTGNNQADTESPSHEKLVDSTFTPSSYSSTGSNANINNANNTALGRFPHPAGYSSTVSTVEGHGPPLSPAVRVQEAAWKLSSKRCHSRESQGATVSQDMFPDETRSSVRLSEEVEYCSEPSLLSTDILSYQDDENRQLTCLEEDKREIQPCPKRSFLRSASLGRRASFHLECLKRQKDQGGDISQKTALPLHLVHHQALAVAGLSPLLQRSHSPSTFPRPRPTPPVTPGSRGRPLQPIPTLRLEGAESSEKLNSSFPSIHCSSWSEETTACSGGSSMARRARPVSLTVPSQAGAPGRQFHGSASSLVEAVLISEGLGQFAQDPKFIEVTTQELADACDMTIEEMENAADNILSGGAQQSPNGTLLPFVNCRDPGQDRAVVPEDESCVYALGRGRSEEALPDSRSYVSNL

Structure (SMILES): Cn1cnc([N+](=O)[O-])c1Sc1ncnc2nc[nH]c12 [Azathioprine, 6-[(1-Methyl-4-nitro-1H-imidazol-5-yl)sulfanyl]-7H-purine]
- Specific binding [1]: -9.0%
- Specific binding ([2]; IPP screening at 10 uM): 1.0%
- Specific binding [3]: 17.2%
- Specific binding [4]: -8.7%
- Specific binding ([5]; IPP screening at 10 uM): 38.3%
- IPP screening %, Coactivator recruitment ([6]; 10 uM): 3.0%
- IPP screening %, Specific binding (Tubulin (r); 10 uM): 6.0%
- Bioactivity Observations: cell stress panel (HepG2 cells [7]): The leading PoD is extrapolated below the lowest dose tested in the CSP
- pod_cell_stress PoD (HepG2 cells [7]): 3.96e-05 µM
- pod_httr_bifrost PoD (HepG2 cells [8]): 0.01764 µM
- podl_path_minbmd PoD (HepG2 cells [8]): 0.1634 µM
- pod_httr_bifrost PoD (HepaRG cells): 0.8426 µM
- podl_path_minbmd PoD (HepaRG cells): 3.742 µM
- pod_httr_bifrost PoD (MCF7 cells): 0.1265 µM
- podl_path_minbmd PoD (MCF7 cells): 0.2237 µM
- Specific binding [9]: 4.2%
- risk [10]: 1
- Intrinsic Liver Clearance [11]: 4323.84 L/h
- solubility (physchem [12]): 231 µg/mL (≈ 833 µM)
- PoD (NOAEL) (rat; 28 days, haematological changes): 3 mg/kg bw/day
- Reported AUC0-t [13, 22]: 430 ng·h/mL
- Reported cmax [13, 22]: 0.9163 µg/mL
- Reported tmax [13, 22]: 0 min
- Reported AUC0-t [13, 23]: 1032.5 ng·h/mL
- Reported cmax [13, 23]: 0.7498 µg/mL
- Reported tmax [13, 23]: 7.524 min
- Reported AUC0-t [13, 24]: 100 ng·h/mL
- Reported cmax [13, 24]: 0.0478 µg/mL
- Reported tmax [13, 24]: 32.87 min

Structure (SMILES): CC1(C)C(C=C(Cl)Cl)C1C(=O)OC(C#N)c1cccc(Oc2ccccc2)c1 (stereo not drawn) [Cypermethrin, Cyano(3-phenoxyphenyl)methyl 3-(2,2-dichloroethenyl)-2,2-dimethylcyclopropane-1-carboxylate]
- Specific binding ([2]; IPP screening at 10 uM): 0.9%
- Specific binding ([3]; IPP screening at 10 uM, control diazepam): 5.5%
- Specific binding ([4]; IPP screening at 10 uM, control veratridine): -112.7%
- Specific binding ([5]; IPP screening at 10 uM): 0.1%
- IPP screening %, Coactivator recruitment ([14]; 10 uM): 0.0%
- IPP screening %, Coactivator recruitment ([15]; 10 uM): 0.0%
- IPP screening %, Coactivator recruitment ([6]; 10 uM): 0.0%
- IPP screening %, Specific binding (Tubulin (r); 10 uM): 8.0%
- pod_cell_stress PoD (HepG2 cells [7]): 7.881 µM
- pod_httr_bifrost PoD (HepG2 cells [8]): 2.669 µM
- podl_path_minbmd PoD (HepG2 cells [8]): 2.638 µM
- pod_httr_bifrost PoD (HepaRG cells): 4.402 µM
- podl_path_minbmd PoD (HepaRG cells): 35.2754 µM
- pod_httr_bifrost PoD (MCF7 cells): 8.9686 µM
- podl_path_minbmd PoD (MCF7 cells): 25.4106 µM
- AC50 [16]: 490 nM
- Specific binding ([9]; IPP screening at 10 uM, control CGS 19755): 11.4%
- IPP screening %, Specific binding ([17]; 10 uM, [3H] Dofetilide, control Terfenadine): 22.7%
- Lowest NOAEL (rat; rat chronic study, route of administration not reported, ref not given): Lowest NOAEL is 0.5 mg/kg from a rat chronic study, but the route of administration isn't reported. 1 mg/kg/day is NOAEL from 52 week dog study
- PoD (NOAEL) (dog): 1 mg/kg bw/day
- IC50 [18]: > 570 nM

Structure (SMILES): CC(C)[C@H](N)C(=O)O [L-valine, L-Valine]
- Specific binding ([2]; IPP screening at 100 uM): 15.0%
- Specific binding ([3]; IPP screening at 100 uM, control diazepam): 1.9%
- Specific binding ([4]; IPP screening at 100 uM, control veratridine): 12.2%
- Specific binding ([5]; IPP screening at 100 uM): -4.2%
- IPP screening %, Coactivator recruitment [14, 25]: 0.0%
- IPP screening %, Coactivator recruitment [15, 25]: -2.0%
- IPP screening %, Coactivator recruitment [6, 25]: 2.0%
- IPP screening %, Specific binding (Tubulin (r); 100 uM): 2.0%
- pod_cell_stress PoD (HepG2 cells [7]): 39.7854 µM
- pod_httr_bifrost PoD (HepG2 cells [8]): 316.528 µM
- podl_path_minbmd PoD (HepG2 cells [8]): 625 µM
- pod_httr_bifrost PoD (HepaRG cells): 162.177 µM
- podl_path_minbmd PoD (HepaRG cells): 351.712 µM
- pod_httr_bifrost PoD (MCF7 cells): 26.9475 µM
- podl_path_minbmd PoD (MCF7 cells): 43.6766 µM
- Specific binding ([9]; IPP screening at 100 uM, control CGS 19755): 0.4%
- IPP screening %, Specific binding ([17]; human): -3.8%
- logP (physchem [19]): -2.21
- PoD (NOAEL) (rat; repeat dose): 666 mg/kg bw/day
- pKa Value ACID ([20]; level L2): 2.3
- pKa Value BASE ([20]; levels L2/L3): 9.55
- Risk Classification ([21]; Oral 26 mg/kg bw/day): Low risk
- Risk Classification ([21]; Oral 4000 mg/day): Low risk
- risk ([21]; 26 mg/kg mean requirements, Tablet, Exp1): 0
- risk ([21]; Dietary 4000 mg/day, Food & Drink, Exp2): 0
